Test results published in PubChem BioAssay AID1963434 (Molecular Pharmacology Branch, DTP, NCI, 2024).
pIC50: −log10 of the molar value.

System: 755483-174-R-J1-PDC complex spheroid growth, percent test/control
Test: Anticancer human tumor 755483-174-R-J1-PDC patient-derived rhabdomyosarcoma cell line growth inhibition [Asc]
Details: for pIC50: curve of first compound; for viability, T/C: stronger effect = lower value; active = viability on the fitted dose curve at most 10% of control; inactive = the rest
Method in brief: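 Concentration series start at each agent's clinical Cmax, or at 10 microM when none is established, and drop in half-log steps; agents are applied alone or together to complex spheroids built with HUVEC and hMSC.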

[1] = second compound 0.1 µM, first compound 0.0316 µM
[2] = second compound 0.1 µM, first compound 0.1 µM
[3] = second compound 0.1 µM, first compound 0.316 µM
[4] = second compound 0.1 µM, first compound 1 µM
[5] = second compound 0.316 µM, first compound 0.0316 µM
[6] = second compound 0.316 µM, first compound 0.1 µM
[7] = second compound 0.316 µM, first compound 0.316 µM
[8] = second compound 0.316 µM, first compound 1 µM
[9] = second compound 1 µM, first compound 0.0316 µM
[10] = second compound 1 µM, first compound 0.1 µM
[11] = second compound 1 µM, first compound 0.316 µM
[12] = second compound 1 µM, first compound 1 µM
[13] = second compound 3.16 µM, first compound 0.0316 µM
[14] = second compound 3.16 µM, first compound 0.1 µM
[15] = second compound 3.16 µM, first compound 0.316 µM
[16] = second compound 3.16 µM, first compound 1 µM
[17] = second compound 10 µM, first compound 0.0316 µM
[18] = second compound 10 µM, first compound 0.1 µM
[19] = second compound 10 µM, first compound 0.316 µM
[20] = second compound 10 µM, first compound 1 µM
[21] = second compound 0.1 µM, first compound 0.00316 µM
[22] = second compound 0.1 µM, first compound 0.01 µM
[23] = second compound 0.316 µM, first compound 0.00316 µM
[24] = second compound 0.316 µM, first compound 0.01 µM
[25] = second compound 1 µM, first compound 0.00316 µM
[26] = second compound 1 µM, first compound 0.01 µM
[27] = second compound 3.16 µM, first compound 0.00316 µM
[28] = second compound 3.16 µM, first compound 0.01 µM
[29] = second compound 10 µM, first compound 0.00316 µM
[30] = second compound 10 µM, first compound 0.01 µM
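Note: spheroids exposed to compounds for seven days before readout.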

C=CC(=O)N1CCN(c2nc(=O)n(-c3c(C)ccnc3C(C)C)c3nc(-c4c(O)cccc4F)c(F)cc23)C(C)C1 (stereo not given) + Cc1c(S(C)(=O)=O)c(-c2cc(F)cc(N3CCN(c4ccc(NS(=O)(=O)c5ccc(NC(CCN6CCC(C(=O)OCCCP(=O)(O)O)CC6)CSc6ccccc6)c(S(=O)(=O)C(F)(F)F)c5)cc4)CC3)c2)c(-c2ccc(Cl)cc2)n1C(C)C
5.26: pIC50 (second compound 0.316 µM)
> 7.50: pIC50 (second compound 1 µM) | pIC50 (second compound 10 µM)
inactive: viability, T/C [1] 79.5% | viability, T/C [2] 46.7% | viability, T/C [3] 58.4% | viability, T/C [4] 72.9% | viability, T/C (second compound 0.1 µM, first compound 3.16 µM) 62.3% | viability, T/C (second compound 0.1 µM, first compound 10 µM) 56.2% | viability, T/C [5] 45.4% | viability, T/C [6] 64.7% | viability, T/C [7] 44.5% | viability, T/C [8] 57.1% | viability, T/C (second compound 0.316 µM, first compound 3.16 µM) 53.2% | viability, T/C (second compound 0.316 µM, first compound 10 µM) 46.9% | viability, T/C [9] 47.2% | viability, T/C [10] 47.4% | viability, T/C [11] 54.8% | viability, T/C [12] 49% | viability, T/C (second compound 1 µM, first compound 3.16 µM) 49.3% | viability, T/C (second compound 1 µM, first compound 10 µM) 37.7% | viability, T/C [13] 52.4% | viability, T/C [14] 46% | viability, T/C [15] 51.9% | viability, T/C [16] 63.2% | viability, T/C (second compound 3.16 µM, first compound 3.16 µM) 48.3% | viability, T/C (second compound 3.16 µM, first compound 10 µM) 48.8% | viability, T/C [17] 35% | viability, T/C [18] 34.6% | viability, T/C [19] 50.2% | viability, T/C [20] 42.6% | viability, T/C (second compound 10 µM, first compound 3.16 µM) 32.8% | viability, T/C (second compound 10 µM, first compound 10 µM) 42.7%
< 5.00: pIC50 (second compound 0.1 µM) | pIC50 (second compound 3.16 µM)

COc1c(OCCCN2CCOCC2)ccc2c3n(c(=NC(=O)c4cnc(N)nc4)nc12)CCN3 + Cc1c(S(C)(=O)=O)c(-c2cc(F)cc(N3CCN(c4ccc(NS(=O)(=O)c5ccc(NC(CCN6CCC(C(=O)OCCCP(=O)(O)O)CC6)CSc6ccccc6)c(S(=O)(=O)C(F)(F)F)c5)cc4)CC3)c2)c(-c2ccc(Cl)cc2)n1C(C)C
active: viability, T/C [3] 6.56% | viability, T/C [4] 4% | viability, T/C [7] 5.57% | viability, T/C [8] 2.62% | viability, T/C [11] 5.22% | viability, T/C [12] 2.16% | viability, T/C [15] 5.03% | viability, T/C [16] 1.66% | viability, T/C [19] 4.21% | viability, T/C [20] 1.7%
inactive: viability, T/C [21] 39.6% | viability, T/C [22] 48% | viability, T/C [1] 33.2% | viability, T/C [2] 15.8% | viability, T/C [23] 32.8% | viability, T/C [24] 28.1% | viability, T/C [5] 31.9% | viability, T/C [6] 13% | viability, T/C [25] 34.3% | viability, T/C [26] 31.4% | viability, T/C [9] 18.6% | viability, T/C [10] 17.4% | viability, T/C [27] 26.5% | viability, T/C [28] 29.1% | viability, T/C [13] 20.2% | viability, T/C [14] 8.47% | viability, T/C [29] 40.9% | viability, T/C [30] 25.5% | viability, T/C [17] 19.1% | viability, T/C [18] 12.1%
> 8.50: pIC50 (second compound 0.1 µM) | pIC50 (second compound 0.316 µM) | pIC50 (second compound 1 µM) | pIC50 (second compound 3.16 µM) | pIC50 (second compound 10 µM)

NC(=O)C(=Cn1cnc(-c2cc(C(F)(F)F)cc(C(F)(F)F)c2)n1)c1cncnc1 + Cc1c(S(C)(=O)=O)c(-c2cc(F)cc(N3CCN(c4ccc(NS(=O)(=O)c5ccc(NC(CCN6CCC(C(=O)OCCCP(=O)(O)O)CC6)CSc6ccccc6)c(S(=O)(=O)C(F)(F)F)c5)cc4)CC3)c2)c(-c2ccc(Cl)cc2)n1C(C)C
> 9.02: pIC50 (second compound 0.1 µM) | pIC50 (second compound 0.316 µM) | pIC50 (second compound 1 µM) | pIC50 (second compound 3.16 µM) | pIC50 (second compound 10 µM)
inactive: viability, T/C (second compound 0.1 µM, first compound 0.000949 µM) 47.5% | viability, T/C (second compound 0.1 µM, first compound 0.003 µM) 36.2% | viability, T/C (second compound 0.1 µM, first compound 0.00949 µM) 22.7% | viability, T/C (second compound 0.1 µM, first compound 0.03 µM) 6.11% | viability, T/C (second compound 0.316 µM, first compound 0.000949 µM) 47% | viability, T/C (second compound 0.316 µM, first compound 0.003 µM) 31.2% | viability, T/C (second compound 0.316 µM, first compound 0.00949 µM) 12.9% | viability, T/C (second compound 1 µM, first compound 0.000949 µM) 34% | viability, T/C (second compound 1 µM, first compound 0.003 µM) 38.8% | viability, T/C (second compound 1 µM, first compound 0.00949 µM) 13.9% | viability, T/C (second compound 3.16 µM, first compound 0.000949 µM) 30.6% | viability, T/C (second compound 3.16 µM, first compound 0.003 µM) 25.2% | viability, T/C (second compound 3.16 µM, first compound 0.00949 µM) 14.1% | viability, T/C (second compound 10 µM, first compound 0.000949 µM) 24.6% | viability, T/C (second compound 10 µM, first compound 0.003 µM) 33.5% | viability, T/C (second compound 10 µM, first compound 0.00949 µM) 13.9%
active: viability, T/C (second compound 0.1 µM, first compound 0.0949 µM) 16.4% | viability, T/C (second compound 0.1 µM, first compound 0.3 µM) 4.19% | viability, T/C (second compound 0.316 µM, first compound 0.03 µM) 7.11% | viability, T/C (second compound 0.316 µM, first compound 0.0949 µM) 2.26% | viability, T/C (second compound 0.316 µM, first compound 0.3 µM) 1.84% | viability, T/C (second compound 1 µM, first compound 0.03 µM) 7.14% | viability, T/C (second compound 1 µM, first compound 0.0949 µM) 3.61% | viability, T/C (second compound 1 µM, first compound 0.3 µM) 2.25% | viability, T/C (second compound 3.16 µM, first compound 0.03 µM) 5.04% | viability, T/C (second compound 3.16 µM, first compound 0.0949 µM) 3% | viability, T/C (second compound 3.16 µM, first compound 0.3 µM) 4.14% | viability, T/C (second compound 10 µM, first compound 0.03 µM) 3.72% | viability, T/C (second compound 10 µM, first compound 0.0949 µM) 1.94% | viability, T/C (second compound 10 µM, first compound 0.3 µM) 0.83%

NC1CCC(NC2CC2c2ccccc2)CC1 (stereo not given) + Cc1c(S(C)(=O)=O)c(-c2cc(F)cc(N3CCN(c4ccc(NS(=O)(=O)c5ccc(NC(CCN6CCC(C(=O)OCCCP(=O)(O)O)CC6)CSc6ccccc6)c(S(=O)(=O)C(F)(F)F)c5)cc4)CC3)c2)c(-c2ccc(Cl)cc2)n1C(C)C
> 9.50: pIC50 (second compound 0.1 µM) | pIC50 (second compound 0.316 µM) | pIC50 (second compound 1 µM) | pIC50 (second compound 3.16 µM) | pIC50 (second compound 10 µM)
inactive: viability, T/C (second compound 0.1 µM, first compound 0.000316 µM) 36.7% | viability, T/C (second compound 0.1 µM, first compound 0.001 µM) 31.1% | viability, T/C [21] 37.3% | viability, T/C [22] 37.3% | viability, T/C [1] 33.7% | viability, T/C [2] 37% | viability, T/C (second compound 0.316 µM, first compound 0.000316 µM) 39.7% | viability, T/C (second compound 0.316 µM, first compound 0.001 µM) 42.1% | viability, T/C [23] 31.7% | viability, T/C [24] 26.7% | viability, T/C [5] 35.9% | viability, T/C [6] 30.5% | viability, T/C (second compound 1 µM, first compound 0.000316 µM) 27.6% | viability, T/C (second compound 1 µM, first compound 0.001 µM) 19.3% | viability, T/C [25] 31.9% | viability, T/C [26] 31.5% | viability, T/C [9] 31.1% | viability, T/C [10] 39.5% | viability, T/C (second compound 3.16 µM, first compound 0.000316 µM) 25.2% | viability, T/C (second compound 3.16 µM, first compound 0.001 µM) 32.8% | viability, T/C [27] 22.7% | viability, T/C [28] 35.9% | viability, T/C [13] 24.9% | viability, T/C [14] 35.4% | viability, T/C (second compound 10 µM, first compound 0.000316 µM) 20.4% | viability, T/C (second compound 10 µM, first compound 0.001 µM) 20.4% | viability, T/C [29] 21.2% | viability, T/C [30] 20.6% | viability, T/C [17] 24.5% | viability, T/C [18] 27.6%
